Calls of active or inactive are those of the source. The calls are words filed in the database; no cut-off is given here.
Legend:
[1] = target: T1, Adenosine receptor A1 (Homo sapiens) (UniProt P30542); assay: Increase in agonist-specific binding of [3H]CCPA to human adenosine A1 receptor in CHO membranes; assay type: functional, cell membranes
T1 sequence (whole entry): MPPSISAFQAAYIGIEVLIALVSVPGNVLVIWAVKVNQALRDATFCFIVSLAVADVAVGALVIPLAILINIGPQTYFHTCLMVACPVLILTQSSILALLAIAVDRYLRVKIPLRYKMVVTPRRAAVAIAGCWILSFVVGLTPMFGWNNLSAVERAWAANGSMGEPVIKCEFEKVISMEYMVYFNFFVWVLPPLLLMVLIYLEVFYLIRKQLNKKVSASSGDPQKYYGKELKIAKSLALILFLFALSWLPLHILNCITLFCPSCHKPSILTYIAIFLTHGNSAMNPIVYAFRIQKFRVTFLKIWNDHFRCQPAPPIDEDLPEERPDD

[2] = target: T1, Adenosine receptor A1 (Homo sapiens); assay: Binding density to adenosine A1 receptor in CHO membranes; assay type: cell membranes; conditions: tested as the 3H-labelled form
[3] = target: T2, Adenosine receptor A1 (Rattus norvegicus) (UniProt P25099); assay: Increase in agonist-specific binding of [3H]CCPA to adenosine A1 receptor in rat cortex; assay type: functional
T2 sequence (whole entry): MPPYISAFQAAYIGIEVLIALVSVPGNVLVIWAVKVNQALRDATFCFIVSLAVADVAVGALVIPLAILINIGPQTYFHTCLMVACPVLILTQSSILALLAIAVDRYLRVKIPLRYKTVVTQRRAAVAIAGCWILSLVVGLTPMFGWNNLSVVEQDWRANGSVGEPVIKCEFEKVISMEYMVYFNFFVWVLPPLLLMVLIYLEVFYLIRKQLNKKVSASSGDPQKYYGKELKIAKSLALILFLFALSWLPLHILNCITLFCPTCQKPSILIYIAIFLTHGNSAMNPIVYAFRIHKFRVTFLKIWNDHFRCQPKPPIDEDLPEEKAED

[4] = target: T2, Adenosine receptor A1 (Rattus norvegicus); assay: Increase in Bmax for binding of [3H]CCPA to adenosine A1 receptor in rat cortex
[5] = target: T1, Adenosine receptor A1 (Homo sapiens); assay: Activity measured by decrease in cAMP content employing CHO cells expressing human A1 receptor at 10 uM; assay type: functional, cell-based; parameters: scale not given: the % may be the effect or the level left
[6] = target: T1, Adenosine receptor A1 (Homo sapiens); assay: Increase in Bmax for binding of [3H]CCPA to human adenosine A1 receptor in human brain membrane; assay type: cell membranes
[7] = target: Adenosine receptor A2a (Homo sapiens) (UniProt P29274); assay: Increase in binding of [3H]CGS 21680 to human adenosine A2A receptor in CHO membranes; assay type: cell membranes
Chain of Adenosine receptor A2a (Homo sapiens) (P29274 whole entry): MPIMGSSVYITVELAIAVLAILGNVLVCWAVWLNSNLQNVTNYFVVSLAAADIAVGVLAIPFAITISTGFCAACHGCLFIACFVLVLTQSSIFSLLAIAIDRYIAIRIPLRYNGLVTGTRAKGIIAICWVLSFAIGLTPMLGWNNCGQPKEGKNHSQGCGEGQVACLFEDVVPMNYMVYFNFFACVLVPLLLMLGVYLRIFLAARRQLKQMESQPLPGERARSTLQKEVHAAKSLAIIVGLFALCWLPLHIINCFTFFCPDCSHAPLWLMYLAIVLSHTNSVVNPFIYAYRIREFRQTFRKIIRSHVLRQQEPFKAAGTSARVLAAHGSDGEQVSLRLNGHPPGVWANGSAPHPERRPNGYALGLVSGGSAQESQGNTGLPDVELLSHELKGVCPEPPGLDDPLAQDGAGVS

[8] = target: T3, Adenosine receptor A3 (Homo sapiens) (UniProt P0DMS8); assay: Increase in binding of [125I]AB-MECA to human adenosine A3 receptor in CHO membranes; assay type: cell membranes
T3 sequence (whole entry): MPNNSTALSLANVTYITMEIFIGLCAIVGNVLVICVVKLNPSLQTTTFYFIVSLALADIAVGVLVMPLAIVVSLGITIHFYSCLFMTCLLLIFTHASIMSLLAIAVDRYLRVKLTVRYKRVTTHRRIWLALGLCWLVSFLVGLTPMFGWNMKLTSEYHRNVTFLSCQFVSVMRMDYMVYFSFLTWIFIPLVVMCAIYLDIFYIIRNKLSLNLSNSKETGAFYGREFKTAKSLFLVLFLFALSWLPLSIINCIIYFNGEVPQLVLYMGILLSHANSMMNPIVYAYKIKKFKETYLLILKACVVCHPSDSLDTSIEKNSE

[9] = target: T1, Adenosine receptor A1 (Homo sapiens); assay: Increase in Bmax for binding of [3H]CCPA to human adenosine A1 receptor in CHO membranes; assay type: cell membranes
[10] = target: T1, Adenosine receptor A1 (Homo sapiens); assay: Increase in agonist-specific binding of [3H]CCPA to human adenosine A1 receptor in human brain membranes; assay type: functional, cell membranes; conditions: Membrane

Activity [1]: 51%
Bmax [2]: 76.5 pmol/mg
Activity [3]: 15%
Activity [4]: 15%
Activity [5]: 55%
Activity [6]: 23%
Activity [7]: inactive
Activity [8]: inactive
Activity [9]: 65%
Activity [10]: 22%
Structure (SMILES): Nc1sc2c(c1C(=O)c1ccc(Cl)cc1)CCCC2
